US20260217983A1, “SULFONIUM SALT PHOTOINITIATORS AND METHODS OF LED CURING A COMPOSITION WITH SAID SULFONIUM SALT PHOTOINITIATORS” (ARKEMA FRANCE, priority 2022, published 2026)
Entries after “also recorded” stand apart in the source; their conditions may differ.

Assays:
[1] = Belt curing performance (thumb-twist depth cure) in UViCure S105E resin; conditions: 24 μm film, under air, PI 2 wt %
Experimental: (§1) The photoinitiators were dissolved either in neat UViCure S105E resin or a hybrid acrylate/epoxy resin (prepared by mixing 60 wt parts UViCure S105E, 15 wt parts UViCure S130 and 25 wt parts SR492; all product are available from Sartomer). Formulations were prepared by combining all materials in the given proportions and then stirring at 30-40° C. until the samples were fully homogeneous; the formulations were then allowed to cool to room temperature. For all experiments, the formulations were cured on Leneta Form 3N-31 gloss finish paper at 6 μm and 24 μm film thickness using a belt-cure instrument; the films were prepared using a K-bar. All films were then cured under an LED lamp at a given belt speed. ‘Depth cure’ for each formulation was assessed using the ‘thumb-twist’ test (where no visible mark is made when a thumb is pressed down firmly onto the coating with a twisting motion), and from the belt speed; the calculated cure speed (in m/min) is given.

[2] = Belt curing performance (thumb-twist depth cure) in hybrid acrylate/epoxy resin; conditions: 24 μm film, under air, PI 2 wt %
Experimental: as §1

[3] = Solubility in propylene carbonate at ambient temperature; format: physicochemical; conditions: 20-25° C.
Experimental: Solubility of selected sulfonium salts in propylene carbonate at ambient temperature (20-25° C.) was determined.

[4] = Transmittance at 0.01% w/v in propylene carbonate; format: physicochemical
Experimental: The samples were prepared at 0.01% w/v in propylene carbonate.

[5] = 3D printability in hybrid system on 405 nm DLP printers; conditions: hybrid formulations of Table 23
[6] = UV Vis spectra measurement; format: physicochemical; conditions: 10 ppm in acetonitrile
From the text: UV-Vis spectrum of each sample was taken with a Shimadzu UV1800 spectrophotometer using a 1.0 cm path of cuvette quartz cell in accordance with ASTM E169-04, and scanning the spectrum over the wavelength range of 450 to 200 nm.

[7] = FTIR-ATR cure test of cationic formulations (epoxide, oxetane conversion, 1100 cm^-1 peak growth); conditions: 405 nm, cationic systems
Experimental: Matrixes: In a 1000 mL of metal can, formulation matrix was charged according to the percentage in Table 12. The 1000-1005 g mixture of each matrix sample was prepared and mixed by mechanical mixer for about 1 hour around 60° C. until the solution became clear. Formulations: In a white max 50 jar from FlackTek Inc., photoinitiator and propylene carbonate were loaded at first, mixed by hand with stainless steel spatula, placed in 60° C. oven for about 1 h, mixed again until it became clear. Then, formulation matrix was charged according to the percentage in one of Table 13 to 21. The […]-52.60 g mixture of each sample was prepared and mixed for 3 minutes at 3000 RPM in Speed Mixer from FleackTec Inc. Then, all jars were placed in 60° C. oven for about 2 h, taken out and immediately mixed for another 2 minutes until the solution became clear.
A Fourier Transform Infrared (FTIR) with an Attenuated Total Reflection (ATR) setup was used. All polymerization rate measurements were performed using Nicolet iS50 FT-IR Spectrometer from Thermo Scientific, equipped with a standard DLaTGS detector. A lamp holder for the ART platform of FTIR unit can be customized and printed from Arkema N3xtDimention® engineered resin N3D-TOUGH784 in order to ensure precisely fit of a 365 nm lamp Accucure ULM-2-365 or a 405 nm lamp Accucure ULM-2-405 from Digital Light Labs. On the bottom of this lamp holder, a dry air channel is built in to allow air uniformly blowing over sample surface, the gas flow rate can be controlled over a rotameter. The LED light was manually triggered by Ultraviolet illumination & Measurement System. LED light exposure can be programed by AccuCure software. For measurement, 25 μL of liquid sample was placed in the center of an ATR crystal. 3 mil of thin film was prepared by a customized coating applicator (3 mil WFM, G1046 from BYK). The LED lamp with holder was place on the top of ART platform. Then FTIR scan was initiated to collect liquid IR spectrum at first. Each IR spectrum of a specific exposure time at 10 mW/cm^2 of LED light were collected. Measurements of acrylate conversion were taken at the peak height under the reference peak around 1727 cm^−1; the acrylate peak of SR833S at approximately 1407 cm^−1, the epoxide peak of UviCure S105 at approximately 790 cm^−1, and the oxetane peak of UViCure S130 at approximately 970 cm^−1 were also measured. Since the ring opening of both epoxide and oxetane generated C—O—C bond, the growth of C—O—C IR peak height at ~1100 cm^−1 was monitored as well. The resulting of peak 1100 cm^−1 growth rate could be calculated to assess total cationic cure speed. Peak heights were determined using the same baseline where a baseline is chosen to be the two lowest points between 600 cm^−1 and 1800 cm^−1. The peak height under the peak and above the baseline was then determined. The integration limits for liquid and the cured sample are not identical but are similar, especially for the reference peak.
The ratios of the acrylate peak height, epoxide peak height, ring opening peak height from both epoxide and oxetane to the reference peak height were determined for both the liquid and the cured samples. Degree of cure or conversion or peak growth rate, expressed as percentage reacted acrylate or epoxide or ring opening of both epoxide and oxetane, was calculated from the equation below: […]
Where Rliq is the peak height ratio of the liquid sample and Rc is the peak height ratio of the LED cured sample. The resulting acrylate and epoxide conversions or C—O—C growth rates were collected and listed in Tables 13 to 21, plotted in FIG. 1 to 8 and FIG. 10.

[8] = LED 365 nm, 100% intensity (=70.1 mJ/cm^2), belt speed 40 m/min

CC(C)c1ccc2c(c1)c(=O)c1ccccc1[s+]2-c1ccc(-c2ccccc2)cc1 (centres unmarked) [Omnicat 550, 10-[1,1′-Biphenyl]-4-yl-2-(1-methylethyl)-9-oxo-9H-thioxanthenium hexafluorophosphate, reference compound]
Cure speed in UViCure S105E resin [1, 8]: 5.0 m/min | Cure speed in UViCure S105E resin ([1]; LED 395 nm, 40 m/min, 100% intensity (=164.5 mJ/cm^2)): 8.0 m/min | Cure speed in hybrid acrylate/epoxy resin [2, 8]: 5.7 m/min | Cure speed in hybrid acrylate/epoxy resin ([2]; LED 395 nm, 80 m/min, 50% intensity (=36.9 mJ/cm^2)): 10.5 m/min | Solubility in propylene carbonate [3]: 25 wt % | % Transmittance at 355 nm [4]: 86.8% | % Transmittance at 420 nm [4]: 99.1% | printability on 405 nm DLP printers [5]: not printable even with over exposure time

CC(C)(C)c1ccc([I+]c2ccc(C(C)(C)C)cc2)cc1 [Speedcure 938, Bis (4-tert-butylphenyl) iodonium hexafluorophosphate, reference compound]
UV absorption over 310 nm wavelength [6]: did not have any absorption at all

COC(OC)(C(=O)c1ccccc1)c1ccccc1 [Speedcure BKL, 2,2-dimethoxy-1,2-diphenylethan-1-one, reference compound]
effect of radical photoinitiator on cationic photopolymerization [7]: Neither radical photoinitiator BKL nor TPO-L could promote cationic photopolymerization

CCOP(=O)(C(=O)c1c(C)cc(C)cc1C)c1ccccc1 (centres unmarked) [Speedcure TPO-L, Ethyl(2,4,6-trimethylbenzoyl)phenyl phosphinate, reference compound]
effect of radical photoinitiator on cationic photopolymerization [7]: Neither radical photoinitiator BKL nor TPO-L could promote cationic photopolymerization; also recorded: slowed down the most
